Reference: patent EP2929785A1, “A PLA inhibitor for inhibition of fat absorption” (PAT GmbH, priority 2014, dated 2015)

Tests used:
HepG2 cells [1] = assay: Cellular steatohepatitis model in HepG2 cells; format: cell-based, human; conditions: UDCA-LPE 100 µM, 1 h, before or after 3 h 400 µM oleate:albumin (4:1)
Experimental: To induce steatosis, HepG2 cells were incubated with 400 µM oleate:albumin (4:1) for 3 h. The effect of UDCA-LPE (100 µM; 1 h) relative to PBS (control) was examined by pretreating cells before or after the 3- h fatty acid feeding period (with continuous fatty acid feeding thereafter). Fatty acid loading was examined by staining cells with Oil Red (Sigma) and by immunodetection of triglycerides (ab65336; Abcam, Cambridge, UK). In addition, the release of lactate dehydrogenase (LDH) (11644793001; Roche, Mannheim, Germany) was determined as a measure of apoptosis.

HepG2 cells [2] = assay: Fatty acid ([3H]oleate:albumin) influx in HepG2 cells; format: cell-based, human
p-JNK1 = assay: Cytosolic p-JNK1 levels in HepG2 cells (western blotting); format: cell-based, human
Experimental: Immunoblotting was performed according to a standard protocol as set out in Sun Q., et al. Biol Med (Maywood). 2012; 237: 178-185. The following primary antibodies to human proteins were used: mouse a-phosphorylated c-Jun N-terminal kinase 1 (p-JNK1) (88.20; Santa Cruz Biotechnology Inc., Heidelberg, Germany) at 1:500; mouse a-CD36 (1.BB.344; Santa Cruz Biotechnology Inc.) at 1:200; rabbit a-iPLA2ß (558-588; Abcam) at 1:500; mouse a-FABPPM (331-430; Abnova, Heidelberg, Germany) at 1:1,000; mouse a-FATP4 (1F4-1B10; Abnova) at 1:500; mouse a-caveolin-1 (C20B; Santa Cruz Biotechnology Inc.) at 1:500; mouse a-flotilin1 (F-3; Santa Cruz Biotechnology Inc.) at 1:500; and mouse a-ß-actin (AC-15; Sigma) at 1:100,000. Anti-mouse or -rabbit HRP (96910 and 107487, respectively; Dianova, Hamburg, Germany) were used at 1:10,000 dilution as secondary antibodies. To estimate the protein concentration a semi-quantitative densitometry was performed as described in Sun Q et al. (loc cit.).

wild-type hepatocytes = assay: Fatty acid influx in primary hepatocytes from wild-type mice; format: cell-based; conditions: UDCA-LPE pretreatment (Fig. 4B)
iPLA2ß = biological target: T1, iPLA2ß (Homo sapiens, UniProt O60733); assay: PLA2 activity in DRM-PM fractions of HepG2 cells; format: biochemical; conditions: DRM-PM fractions after 1-h treatment; dose-dependent
T1 construct: PLA2 activity in DRM-PM fractions isolated from HepG2 cells; endogenous in cells; host or cells: HepG2 (DRM-PM fraction)
T1 sequence (O60733 1-806): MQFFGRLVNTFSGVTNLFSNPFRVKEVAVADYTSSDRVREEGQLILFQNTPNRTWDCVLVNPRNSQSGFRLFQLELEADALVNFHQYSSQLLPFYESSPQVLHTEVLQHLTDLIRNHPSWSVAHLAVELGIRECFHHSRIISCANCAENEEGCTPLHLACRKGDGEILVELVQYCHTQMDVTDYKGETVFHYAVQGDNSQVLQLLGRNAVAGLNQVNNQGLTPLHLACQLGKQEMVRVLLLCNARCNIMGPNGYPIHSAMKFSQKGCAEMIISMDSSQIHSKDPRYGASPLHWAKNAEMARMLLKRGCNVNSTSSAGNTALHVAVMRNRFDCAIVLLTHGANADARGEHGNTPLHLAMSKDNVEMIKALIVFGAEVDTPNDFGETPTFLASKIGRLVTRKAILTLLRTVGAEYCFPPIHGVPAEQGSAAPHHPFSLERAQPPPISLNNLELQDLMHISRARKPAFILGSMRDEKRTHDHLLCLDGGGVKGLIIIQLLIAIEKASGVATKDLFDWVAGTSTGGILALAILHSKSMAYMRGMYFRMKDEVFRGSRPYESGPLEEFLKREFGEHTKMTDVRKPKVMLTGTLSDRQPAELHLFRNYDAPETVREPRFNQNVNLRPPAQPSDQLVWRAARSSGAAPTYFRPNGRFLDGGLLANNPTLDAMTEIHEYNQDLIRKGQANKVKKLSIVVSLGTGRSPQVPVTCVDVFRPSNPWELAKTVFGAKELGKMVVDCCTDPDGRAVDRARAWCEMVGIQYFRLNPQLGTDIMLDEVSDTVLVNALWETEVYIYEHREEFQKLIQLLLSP
Experimental: Detergent-resistant PM (DRM-PM) and non-DRM-PM fractions were isolated and characterized as previously described (Pohl J et al. Mol Biol Cell. 2005; 16: 24-31). Subcellular membrane fractions were prepared by centrifugation at 100,000 g for 1 h to obtain homogenate pellets. Nuclear extracts were obtained by centrifugation at 500 g for 5 min. Pellets were washed and resuspended in a buffer solution containing […] (pH 7.4), 100 mM NaCl, and 0.1 mM EDTA (Marzluff WF et al. Meth Cell Biol. 1987; 317-331)). The protein concentration was determined by the Bradford method (Bio- Rad, Munich, Germany).
PLA2 activity (µmoles LPC/mg protein/h) was determined by incubating samples with arachidonoyl thio-PC (62240; Cayman, Tallin, Estonia) for 1 h at 25°C in a Ca2+ -free buffer (Bhat MK et al. Biochim Biophys Act. 1993; 1166: 244-250). The reaction was terminated by adding 5,5-dithio-bis-2-nitrobenzoic acid and the absorbance at 405 nm was measured.

[3] = biological target: T2, four-protein fatty acid uptake complex within the DRM-domain of CaCo2 plasma membranes (Homo sapiens, UniProt O60733); assay: Disintegration of the fatty acid uptake complex in CaCo2 cells; format: cell-based
T2 construct: the DRM domains of the plasma membrane were isolated from native CaCo2 cells; endogenous in cells; host or cells: CaCo2
T2 sequence (O60733 1-806): T1 sequence (O60733 1-806)
Experimental: All other experiments were assessed with CaCo2 cells as described in Ex. 1, mutatis mutandis.

CaCo2 cells = assay: Fatty acid influx in CaCo2 cells; format: cell-based

IC50 (HepG2 cells [2]; 1-h treatment with increasing concentrations (Fig. 2A), read-out: inhibition of fatty acid influx (IC50)): 47 µM
PLA2 activity (iPLA2ß): suppression of PLA2 activity
minimal concentration for disintegration of the complex [3]: 50 µM
exposure time for disintegration of the complex ([3]; 50 µM): 30 min
Substance: ursodeoxycholatelysophosphatidylethanolamide [UDCA-LPE]
fatty acid-induced inflammation (LDH release) (HepG2 cells [1]): prevented or reversed
steatosis (HepG2 cells [1]): prevented or reversed
time until fatty acid influx reached a minimum (HepG2 cells [2]; UDCA-LPE 100 µM (Fig. 1A)): 60 min
time after withdrawal until original fatty acid influx rate was restored (HepG2 cells [2]; after UDCA-LPE withdrawal (Fig. 1A)): 6 h
Km (HepG2 cells [2]; pretreatment UDCA-LPE 100 µM, 1 h or MAFP 150 µM, 1 h): 0.251 µM
Vmax of [3H]oleate influx (HepG2 cells [2]; pretreatment UDCA-LPE 100 µM, 1 h or MAFP 150 µM, 1 h, control 61.80): 28.43 nmol/mg protein/min
pretreatment time achieving the threshold LPC concentration at which p-JNK1 began to decrease (p-JNK1; > 50 µM UDCA-LPE): > 30 min
pretreatment concentration achieving the threshold LPC concentration at which p-JNK1 began to decrease (p-JNK1; for > 30 min): > 50 µM
fatty acid influx (wild-type hepatocytes): inhibited
apical fatty acid influx (CaCo2 cells; CaCo2 cells cultured 21 days (polarized), pretreatment at the apical site): significantly inhibited
inhibition of fatty acid influx (CaCo2 cells; UDCA-LPE 100 µM, 1 h, scrambled siRNA control conditions): > 50%
fatty acid influx kinetics (CaCo2 cells; preincubation of CaCo2 cells): non-competitive inhibition
